Measurements reported in US20190315823A1, “SMALL CATIONIC ANTI-BIOFILM AND IDR PEPTIDES” (priority 2013, published 2019).
“And” between values parts separate entries of the source, which are not always exact repeats. Equal values may be shown once. Read-outs that look alike come from different tables or passages of the source. Ends that are not written are not given here. Peptide text beside a SMILES is read from it.

How the values were obtained:
[1] = tested on: Pseudomonas aeruginosa (Pa) biofilm; assay: static abiotic solid surface (microtiter, crystal violet) / Bioflux biofilm inhibition screen; type: cell-based
Experimental: FIG. 1. Identification of new anti-biofilm peptides active against P. aeruginosa using the microtiter plate screening method with crystal violet staining. […] As a control peptide 1037 was utilized [de la Fuente Nunez et al. 2011].
Methods of assessment of anti-biofilm activity—Biofilm formation was initially analyzed using a static abiotic solid surface assay as described elsewhere (de la Fuente-Nunez et al., 2012). Dilutions (1/100) of overnight cultures were incubated in BM2 biofilm-adjusted medium [62 mM potassium phosphate buffer (pH 7), 7 mM (NH4)2SO4, 2 mM MgSO4, 10 μM FeSO4, 0.4% (wt/vol) glucose, 0.5% (wt/vol) Casamino Acids], or a nutrient medium such as Luria Broth, in polypropylene microtiter plates (Falcon, United States) in the absence (control) or presence of peptide. Peptide was added at time zero (prior to adding the diluted, overnight cultures) in varying concentrations, and the decrease in biofilm formation was recorded at 22-46 h for most bacteria. Planktonic cells were removed, biofilm cells adhering to the side of the tubes were stained with crystal violet, and absorbance at 595 nm was measured using a microtiter plate reader (Bio-Tek Instruments Inc., United States). Some peptides were screened against two Gram negative organisms, P. aeruginosa and K. pneumoniae using a Bioflux apparatus (AutoMate Scientific, Berkeley, Calif.; http://www.autom8.com/bioflux_biofilm.html), which allows for the high-throughput, real-time analysis of biofilms.

[2] = tested on: human peripheral blood mononuclear cells (MCP-1); assay: MCP-1 chemokine production by ELISA; type: cell-based
Experimental: FIG. 19. High production of anti-infective chemokine MCP-1 by human peripheral blood mononuclear cells treated with peptides, as determined by ELISA after 24 hours of stimulation.
Venous blood (20 ml) from healthy volunteers was collected in Vacutainer® collection tubes containing sodium heparin as an anticoagulant (Becton Dickinson, Mississauga, ON) in accordance with UBC ethical approval and guidelines. Blood was diluted 1:1 with complete RPMI 1640 medium and separated by centrifugation over a Ficoll-Paque® Plus (Amersham Biosciences, Piscataway, N.J., USA) density gradient. White blood cells were isolated from the buffy coat, washed twice in RPMI 1640 complete medium, and the number of peripheral blood mononuclear cells (PBMC) was determined by Trypan blue exclusion. PBMC (5×10^5) were seeded into 12-well tissue culture dishes (Falcon; Becton Dickinson) at 0.75 to 1×10^6 cells/ml at 37° C. in 5% CO2. The above conditions were chosen to mimic conditions for circulating blood monocytes entering tissues at the site of infection via extravasation.
Following incubation of the cells under various treatment regimens, the tissue culture supernatants were centrifuged at 1000×g for 5 min, then at 10,000×g for 2 min to obtain cell-free samples. Supernatants were aliquoted and then stored at −20° C. prior to assay for various chemokines by capture ELISA (eBioscience and BioSource International Inc., CA, USA respectively)

E. coli biofilms = assay: checkerboard titration biofilm synergy (MBIC, FIC); type: cell-based; settings: for MBIC: compound alone; for Fold decrease in antibiotic concentration: in the presence of peptide 1018; for Fold decrease in antibiotic concentration / antibiotic MIC: in the presence of peptide DJK5
Experimental: (§1) Peptides and various conventional antibiotics were analyzed by checkerboard titration into microtiter trays using CLSI methods (Wiegand, I., K. Hilpert, and R. E. W. Hancock. 2008. Nature Protocols 3:163-175), bacteria added and, after overnight incubation at 37° C., the residual biofilm assessed by the crystal violet method mentioned in the body of the grant, with an A595 of 0.2 considered as 100% biofilm inhibition. The effects of the peptide in reducing the minimal biofilm inhibitory concentration (MBIC) of the antibiotic and vice versa were assessed using the Fractional Inhibitory Concentration (FIC) method whereby ΣFTC=FICA+FICB=(CA/MICA)+(CB/MICB), where MBICA and MBICB are the MBICs of peptide A and antibiotic B alone, respectively, and CA and CB (expressed in μg/ml) are the MICs of the drugs in combination. This conventional clinical microbiology assay is interpreted as follows

S. aureus biofilms = assay: checkerboard titration biofilm synergy (MBIC, FIC); type: cell-based; settings: for MBIC: compound alone; for Fold decrease in antibiotic concentration: in the presence of peptide 1018; for Fold decrease in antibiotic concentration / antibiotic MIC: in the presence of peptide DJK5
Experimental: as §1

P. aeruginosa biofilms = settings: P. aeruginosa biofilm
Experimental: as §1

A. baumannii biofilm = assay: checkerboard titration biofilm synergy (FIC); type: cell-based; settings: for Fold decrease in antibiotic MIC in the presence of peptide: peptide DJK5
Experimental: as §1

K. pneumoniae biofilm = assay: checkerboard titration biofilm synergy (FIC); type: cell-based; settings: for Fold decrease in antibiotic MIC in the presence of peptide: peptide DJK5
Experimental: as §1

Salmonella biofilm = assay: checkerboard titration biofilm synergy (FIC); type: cell-based; settings: for Fold decrease in antibiotic MIC in the presence of peptide: peptide DJK5
Experimental: as §1

[3] = antibiotic in combination with peptide 1018
[4] = antibiotic in combination with peptide DJK5
[5] = in combination with peptide 1018
[6] = in combination with peptide DJK5

Compound	Notes (IDR immunomodulatory activity) [2]	FIC (E. coli biofilms; [3])	FIC (E. coli biofilms; [4])	MBIC (E. coli biofilms) [µg/mL]	concentration of antibiotic at FIC (E. coli biofilms; [5]) [µg/mL]	concentration of antibiotic at FIC (E. coli biofilms; [6]) [µg/mL]	Fold decrease in antibiotic concentration (E. coli biofilms) [X]	Fold decrease in antibiotic concentration / antibiotic MIC (E. coli biofilms) [X]	FIC (S. aureus biofilms; [3])	FIC (S. aureus biofilms; [4])	MBIC (S. aureus biofilms) [µg/mL]	concentration of antibiotic at FIC (S. aureus biofilms; [5]) [µg/mL]	concentration of antibiotic at FIC (S. aureus biofilms; [6]) [µg/mL]	Fold decrease in antibiotic concentration (S. aureus biofilms) [X]	Fold decrease in antibiotic concentration / antibiotic MIC (S. aureus biofilms) [X]	FIC (P. aeruginosa biofilms; [3])	FIC (P. aeruginosa biofilms; [4])	Concentration of antibiotic at the FIC (P. aeruginosa biofilms; [5]) [µg/mL]	Concentration of antibiotic at the FIC (P. aeruginosa biofilms; [6]) [µg/mL]	FIC (A. baumannii biofilm; [3])	further results
CC[C@H](C)[C@H](NC(=O)[C@H](C)N)C(=O)N[C@@H](CCCNC(=N)N)C(=O)N[C@H](C(=O)N[C@H](C(=O)N[C@@H](CCCNC(=N)N)C(=O)N[C@@H](C)C(=O)N[C@@H](CCCNC(=N)N)C(=O)N[C@@H](CC(C)C)C(=O)N[C@H](C(=O)N[C@@H](CCCNC(=N)N)C(=O)N[C@@H](CCCNC(=N)N)C(N)=O)C(C)C)C(C)C)C(C)C [Peptide 1009] (H-AIRVVRARLVRR-NH2; N-terminus assumed)																					% Biofilm Inhibition Pa ([1]; Pa) biofilm, 10 μg/ml): 54%
RVLIRVARRVIW (RVLIRVARRVIW-NH2) [HE9]	Weaker activity than 1018																				
C[C@@H](O)[C@H]1C(=O)N2C(C(=O)O)=C(SCCN=CN)C[C@H]12 [Imipenem]		0.75	1	6.4	1.6	0.1	4	64	0.25	0.52	>102.4	25.6	3.2	4	32	0.502 and 0.5	0.51 and 0.5	0.8	0.8	0.53	FIC (A. baumannii biofilm; [4]): 0.75; Fold decrease in antibiotic MIC in the presence of peptide (A. baumannii biofilm): 2X; FIC (K. pneumoniae biofilm; [3]): 0.53; FIC (K. pneumoniae biofilm; [4]): 1; Fold decrease in antibiotic MIC in the presence of peptide (K. pneumoniae biofilm): 64X; FIC (Salmonella biofilm; [3]): 1; FIC (Salmonella biofilm; [4]): 1; Fold decrease in antibiotic MIC in the presence of peptide (Salmonella biofilm): 2X
CC[C@H](C)[C@H](NC(=O)[C@H](CCCNC(=N)N)NC(=O)[C@H](C)NC(=O)[C@@H](NC(=O)[C@H](CCCNC(=N)N)NC(=O)[C@H](C)NC(=O)[C@H](Cc1c[nH]c2ccccc12)NC(=O)[C@H](CCCNC(=N)N)NC(=O)[C@@H](N)C(C)C)C(C)C)C(=O)N[C@@H](CC(C)C)C(=O)N[C@@H](CCCNC(=N)N)C(=O)N[C@H](C(N)=O)C(C)C [HE3] (H-VRWARVARILRV-NH2; N-terminus assumed)	Weaker activity than 1018																				
CC[C@H](C)[C@H](NC(=O)[C@H](CC(C)C)NC(=O)[C@@H]1CCCN1C(=O)[C@H](CCCCN)NC(=O)[C@H](C)NC(=O)[C@@H](NC(=O)[C@@H](NC(=O)[C@@H](NC(=O)[C@@H](NC(=O)[C@H](CCCCN)NC(=O)[C@H](CCCCN)NC(=O)[C@H](C)NC(=O)[C@H](C)NC(=O)[C@H](CO)NC(=O)[C@@H](NC(=O)[C@H](CC(C)C)NC(=O)[C@H](CCCCN)NC(=O)[C@H](CCCCN)NC(=O)[C@@H](NC(=O)[C@H](Cc1ccccc1)NC(=O)[C@H](CO)NC(=O)[C@H](CCCCN)NC(=O)[C@H](Cc1c[nH]c2ccccc12)NC(=O)[C@@H](N)CCCCN)[C@@H](C)CC)[C@@H](C)O)C(C)C)C(C)C)[C@@H](C)O)[C@@H](C)O)C(=O)N[C@@H](CO)C(=O)N[C@@H](CO)C(N)=O [CP26] (H-KWKSFIKKLTSAAKKVVTTAKPLISS-NH2; N-terminus assumed)																					% Biofilm Inhibition Pa ([1]; peptide 10 μg/ml): 62%
NC[C@H]1O[C@H](O[C@H]2[C@H](O)[C@@H](O[C@H]3O[C@H](CO)[C@@H](O)[C@H](N)[C@H]3O)[C@H](N)C[C@@H]2N)[C@H](N)C[C@@H]1O [Tobramycin]		0.375 and 0.38	0.5625 and 0.56	6.4	1.6	0.4	4	16	0.52 and 0.5	1	>102.4	1.6	1.6	64	64	0.502 and 0.5	0.51 and 0.5	1.6	1.6	0.38	FIC (A. baumannii biofilm; [4]): 0.56; Fold decrease in antibiotic MIC in the presence of peptide (A. baumannii biofilm): 16X; FIC (K. pneumoniae biofilm; [3]): 0.31; FIC (K. pneumoniae biofilm; [4]): 0.75; Fold decrease in antibiotic MIC in the presence of peptide (K. pneumoniae biofilm): 4X; FIC (Salmonella biofilm; [3]): 0.75; FIC (Salmonella biofilm; [4]): 1.03; Fold decrease in antibiotic MIC in the presence of peptide (Salmonella biofilm): 32X
